# Measurements from ChEMBL document CHEMBL4257544, “Synthesis and biological evaluation of novel asymmetric naphthalene diimide derivatives as anticancer agents depending on ROS generation” (Medchemcomm, 2018).
# Columns and labels:
# SMMC-7721 = experiment: Cytotoxicity against human SMMC7721 cells after 48 hrs by MTT assay; type: functional, cell-based; settings: SMMC-7721, 48 h
# MDA-MB-231 = experiment: Cytotoxicity against human MDA-MB-231 cells after 48 hrs by MTT assay; type: functional, cell-based; settings: MDA-MB-231, 48 h
# HepG2 = experiment: Cytotoxicity against human HepG2 cells after 48 hrs by MTT assay; type: functional, cell-based; settings: HepG2, 48 h
# HCT-116 = experiment: Cytotoxicity against human HCT116 cells after 48 hrs by MTT assay; type: functional, cell-based; settings: HCT-116, 48 h
# MCF7 = experiment: Cytotoxicity against human MCF7 cells after 48 hrs by MTT assay; type: functional, cell-based; settings: MCF7, 48 h
# [1] = Solubility of the compound; type: physicochemical
Structure (SMILES),IC50 (SMMC-7721),IC50 (MDA-MB-231),IC50 (HepG2),IC50 (HCT-116),IC50 (MCF7),solubility [1]
CN(C)CCCN1C(=O)c2ccc3c4c(ccc(c24)C1=O)C(=O)N(CCCO)C3=O,4.44 µM,6.21 µM,5.96 µM,5.29 µM,3.36 µM,–
CCCCN1C(=O)c2ccc3c4c(ccc(c24)C1=O)C(=O)N(c1ncccn1)C3=O,35.1 µM,15.1 µM,17 µM,9.22 µM,12.6 µM,–
CCCCN1C(=O)c2ccc3c4c(ccc(c24)C1=O)C(=O)N(C1CCCCC1)C3=O,> 50 µM,> 50 µM,> 50 µM,45.9 µM,> 50 µM,Insoluble
CCCCN1C(=O)c2ccc3c4c(ccc(c24)C1=O)C(=O)N(C1CC1)C3=O,> 50 µM,> 50 µM,> 50 µM,16.3 µM,> 50 µM,Insoluble
CCCCN1C(=O)c2ccc3c4c(ccc(c24)C1=O)C(=O)N(c1cccnc1)C3=O,37.9 µM,> 50 µM,35.9 µM,36.3 µM,> 50 µM,–
CC(C)CN1C(=O)c2ccc3c4c(ccc(c24)C1=O)C(=O)N(CCCO)C3=O,3.8 µM,5.39 µM,4.14 µM,8.29 µM,4.78 µM,–
O=C1c2ccc3c4c(ccc(c24)C(=O)N1CCCO)C(=O)N(CCCN1CCOCC1)C3=O,2.7 µM,7.64 µM,3.08 µM,4.35 µM,6.98 µM,–
CN(C)CCN1C(=O)c2cccc3cc(N)cc(c23)C1=O [AMONAFIDE],9.37 µM,6.62 µM,9.45 µM,6.46 µM,12.9 µM,–
CCCCN1C(=O)c2ccc3c4c(ccc(c24)C1=O)C(=O)N(CC1CC1)C3=O,> 50 µM,> 50 µM,> 50 µM,32.3 µM,> 50 µM,Insoluble
CCCCN1C(=O)c2ccc3c4c(ccc(c24)C1=O)C(=O)N(CC(C)C)C3=O,36.4 µM,> 50 µM,45.2 µM,28.2 µM,39.6 µM,Insoluble
CCCCN1C(=O)c2ccc3c4c(ccc(c24)C1=O)C(=O)N(CCCN1CCOCC1)C3=O,25.4 µM,18.2 µM,30.6 µM,32.7 µM,21.4 µM,–
CCCCN1C(=O)c2ccc3c4c(ccc(c24)C1=O)C(=O)N(CCC)C3=O,> 50 µM,> 50 µM,> 50 µM,> 50 µM,> 50 µM,Insoluble
